Columns and labels:
[1] = Preparation of liposomes (vesicle solution); format: physicochemical
Method: Cationic liposomes comprising derivatives I-XXI were prepared by dissolving the crystalline derivative in chloroform. The solvent was evaporated under a stream of nitrogen for 45 min in vacuum. The resulting thin films were resuspended in 4 ml deionized water, vortexed and sonicated in bath type sonicator 30′ until the solution became clear. (The final concentration of liposomes was 2.5 mM.) In order to prepare the liposomes of derivatives I-XXI (Table 2) high temperatures (40-65° C.) were used. Derivatives XXII-XXVII (Table 2) were dissolved in deionized water, vortexed and sonicated 5-7 min in a bath sonicator.

carotid arteries = assay: In vivo gene transfer to collared carotid arteries, X-gal staining; set-up: species or system New Zealand White rabbits; details: rabbit carotid artery
Method: For in vivo studies derivative/plasmid DNA complexes were prepared by the above mentioned method. After gentle swirling the mixtures were allowed to stand in room temperatures for 30 min. prior to use. The complexes were made in phosphate buffer saline and those having +/−charge ratios of 2-8 were used.
Five New Zealand White male rabbits of 2.5-3.5 kg were used. Fentanyl-fluanisone (0,3 mL/kg, s.c., Janssen Pharmaceutica, Beerse, Belgium) and midazolam (1.5 mg/kg, i.m., Roche, Basel, Switzerland) were used for anesthesia. Carotid arteries were exposed using midline neck incision. Arteries were carefully separated from the surrounding tissue and 3 cm silastic collar (MediGene Oy, Kuopio, Finland) was positioned around the artery. Rabbits were re-anesthetized for gene transfer, which was performed 5 days after the installation of the collars. The collars were opened and filled with 600 μL of the gene transfer solution. Rabbits were sacrificed three days after the gene transfer and arteries were removed for histological analyses.
Collared arteries were divided into three equal parts: the proximal third was immersion-fixed in 4% paraformaldehyde/15% sucrose (pH 7.4) for 4 h, rinsed in 15% sucrose (pH 7.4) overnight and embedded in paraffin. The medial third was stored at −70° C. for later analyses. The distal third was immersion-fixed in 4% paraformaldehyde/phosphate buffered saline (pH 7.4) for 30 min, rinsed 24 h in phosphate buffer (pH 7.2) and embedded in OCT compound.
Ten randomly selected frozen sections (10 μm) from each rabbit were stained with X-gal for 18 h to identify β-galactosidase positive cells. Mayers Carmalum-stain was, used as counter stain.

[2] = tested on: CV-1P (African monkey green kidney fibroblasts cells); assay: In vitro transfection of plasmid DNA, β-galactosidase activity per well; format: cell-based; details: for transfection efficiency: CVI-P
Procedure, shortened: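 CV-1P cells (20 000/well) given compound/DNA complexes at various charge ratios, prepared in 50 mM MES–50 mM HEPES–75 mM NaCl pH 7.2, 0.6 μg DNA/well, for 5 h at 37 °C, then 45 h in growth medium. Lysates assayed for β-galactosidase via oNPG hydrolysis at 405 nm against an E. coli enzyme standard; efficiency expressed as percent of Lipofectin.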

D 407 cells = assay: Cytotoxicity of amphiphile/DNA complexes, percentage of survived cells; format: cell-based, human; set-up: concentration or dose not given beside the values
CVI-P cells = assay: as above
[3] = tested on: D407 (human retinal pigment epithelial) cells; assay: In vitro transfection of plasmid DNA, β-galactosidase activity per well; format: cell-based; details: for transfection efficiency: D 407
Method: Transfer of plasmid DNA by various compounds was investigated by using CV-1P (African monkey green kidney fibroblasts cells) and D407 (human retinal pigment epithelial) cells.
The cells were cultured in Dulbecco's modified Eagle's medium (DMEM, Gibco), supplemented with 10% fetal bovine serum (FBS), penicillin/streptomycin (100 units/ml and 100 μg/ml respectively) and 2 mM L-glutamine for D 407 cell line. Cell cultures were maintained at 37° C. in a 7% CO2/air incubator. The cells were collected, counted and seeded in growth medium (100 μl) into 96-well culture plate, 20 000 cells per well. One day later the medium was replaced with fresh medium without serum (150 μl)
The complexes at different derivative/DNA charge ratios for transfection procedure were prepared just before use in 50 mM MES—50 mM HEPES—75 mM NaCl buffer, pH 7.2 in separate 96 well plates. One hour after changing the serum-free medium with 10% serum the complexes were added to the cells at 370C. Dose of DNA per well was 0.6 μg. After 5 h the complexes were removed, the cells were washed with PBS, and the normal growth medium was added. After 45 h of incubation at 37° C. the cells were lysed with 2% Triton X 100, twice deep frozen and the β-galactosidase activity in each well was determined spectrofotometrically with ELx800 automated microplate reader (Bio-Tex Instruments Inc., Winooski, Vt. USA) by monitoring the hydrolysis of o-nitrophenylgalactopyranoside (oNPG) at 405 nm. Purified β-galactosidase from E.coli was used to construct a standard curve and to calculate 9-galactosidase activity in the transfected cells. […] Transfection efficiencies are given as percentage in comparison to transfection efficiency of Lipofectin^R.

plasmid DNA = assay: DNA condensation/complexation, EtBr displacement assay; format: binding
Procedure, shortened: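 Plasmid DNA (0.6 μg/well) was mixed with 0.002% EtBr in 20 mM HEPES–150 mM NaCl pH 7.4, then cationic liposomes were added at various +/− charge ratios.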

[4] = amphiphile/DNA +/− charge ratio 0.5
[5] = amphiphile/DNA +/− charge ratio 1
[6] = amphiphile/DNA +/− charge ratio 2
[7] = amphiphile/DNA +/− charge ratio 4
[8] = amphiphile/DNA +/− charge ratio 8

In the case of “3′,5′-Bis(cholesteryloxycarbonyl)-1′,4′-dihydro-1,2′,6′-trimethyl-3,4′-bipyridinium iodide [XII]”, the “vesicle solution preparation, observation in words (phrases split over cells: 'Fast residue & crystalls'; 'No vesicle solution can be prepared')” value [1] is reported as “No”.
In the case of `CCCCCCCCCCCCOC(=O)C1=C(C[n+]2ccccc2)NC(C[n+]2ccccc2)=C(C(=O)OCCCCCCCCCCCC)C1c1ccccc1.[Br-].[Br-]` [XXIII, 1,1′-{[3,5-Bis(dodecyloxycarbonyl)-1,4-dihydro-4-phenylpyridine-2,6-diyl]dimethylene}bispyridinium dibromide], the “β-galactosidase activity in arteries, result in words” value (carotid arteries; X-gal staining) is reported as “detected at all study groups”, the gene transfer efficiency (carotid arteries; derivative/plasmid complexes at three charge ratios, three days after gene transfer) is reported as 0.05-1.5% and the “most effective charge ratio” value (carotid arteries; three charge ratios tested) is reported as “+4”. For the same molecule, the “level of transfection compared with DOTAP” value ([2]; CV1-P cells, FIG. 4) was “ten times higher”, the “level of transfection compared with Lipofectin” value ([2]; CV1-P cells, FIG. 4) was “at least twenty times higher” and the transfection efficiency [2, 4] was 0,44 β-galactosidase units per well. The transfection efficiency [2, 5] was 0,42 β-galactosidase units per well, the transfection efficiency [2, 6] was 65,5 β-galactosidase units per well and the transfection efficiency [2, 7] was 122,8 β-galactosidase units per well. For the same molecule, the transfection efficiency [2, 8] was 22,33 β-galactosidase units per well, the “highest level of beta-galactosidase expression” value ([2]; confluent CV1-P cells, without serum, without DOPE) was 208 mU and the “cytotoxicity as a percentage of survived cells” value (“cytotoxicity as a percentage” for short) (D 407 cells; [4]) was 93,67%. For the same molecule, the “cytotoxicity as a percentage” value (D 407 cells; [5]) was 87,69%, the “cytotoxicity as a percentage” value (D 407 cells; [6]) was 79,68% and the “cytotoxicity as a percentage” value (D 407 cells; [7]) was 70,23%. The “cytotoxicity as a percentage” value (D 407 cells; [8]) was 11,98%, the “cytotoxicity as a percentage” value (CVI-P cells; [4]) was 99,71% and the “cytotoxicity as a percentage” value (CVI-P cells; [5]) was 94,54%. The “cytotoxicity as a percentage” value (CVI-P cells; [6]) was 93,48%, the “cytotoxicity as a percentage” value (CVI-P cells; [7]) was 89,35% and the “cytotoxicity as a percentage” value (CVI-P cells; [8]) was 42,72%. The transfection efficiency [3, 4] was 0,27 β-galactosidase units per well, the transfection efficiency [3, 5] was 0,27 β-galactosidase units per well and the transfection efficiency [3, 6] was 0,6 β-galactosidase units per well. The transfection efficiency [3, 7] was 35,82 β-galactosidase units per well, the transfection efficiency [3, 8] was 4,43 β-galactosidase units per well and the “level of transfection compared with Lipofectin” value ([3]; D407 cells, FIG. 4) was “at least twenty times higher”. For the same molecule, the “complexation, percentage of the maximum fluorescence signal when EtBr bound to DNA in the absence of an amphiphile” value (plasmid DNA; [4]) was 78,22%, the “complexation, percentage of the maximum fluorescence signal when EtBr bound to DNA in the absence of an amphiphile” value (plasmid DNA; [5]) was 59,03% and the “complexation, percentage of the maximum fluorescence signal when EtBr bound to DNA in the absence of an amphiphile” value (plasmid DNA; [6]) was 48,3%. For the same molecule, the “complexation, percentage of the maximum fluorescence signal when EtBr bound to DNA in the absence of an amphiphile” value (plasmid DNA; [7]) was 44,14% and the “complexation, percentage of the maximum fluorescence signal when EtBr bound to DNA in the absence of an amphiphile” value (plasmid DNA; [8]) was 42,48%.

Reference: patent US20030064954A1, “Cationic amphiphilic 1,4-dihydropyridine derivatives useful for delivery of nucleotide containing compounds” (priority 2000, published 2003)
